Results taken from the supplement of paper PMC10307832.

Legend:
Assay in all cases: relative viability (nuclei count vs DMSO), 5 days (fraction); higher = more cells survive
ABC-1 = tested on: ABC-1
How it was run: (§1)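 The day after seeding in 1536-well plates, lung cancer cell lines were treated by pin tool with a single drug, or with a fixed anchor-drug dose together with five library-drug doses (not always all listed) in √10 steps. After 5 days, a combined fix-and-stain solution (final 0.05% Triton X-100, 1% formaldehyde, 1 ug/ml Hoechst) was added. Nuclei counted on 4× images gave relative viability as treated counts over vehicle counts, reported as the median of duplicate plates.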

CAL-12T = tested on: CAL-12T
How it was run: as §1

ChaGo-K-1 = tested on: ChaGo-K-1
How it was run: as §1

EPLC-272H = tested on: EPLC-272H
How it was run: as §1

HCC-366 = tested on: HCC-366
How it was run: as §1

HCC-78 = tested on: HCC-78
How it was run: as §1

LC-2-ad = tested on: LC-2-ad
How it was run: as §1

LOU-NH91 = tested on: LOU-NH91
How it was run: as §1

LU99A = tested on: LU99A
How it was run: as §1

NCI-H1651 = tested on: NCI-H1651
How it was run: as §1

NCI-H1734 = tested on: NCI-H1734
How it was run: as §1

NCI-H1755 = tested on: NCI-H1755
How it was run: as §1

NCI-H1944 = tested on: NCI-H1944
How it was run: as §1

NCI-H2087 = tested on: NCI-H2087
How it was run: as §1

NCI-H2170 = tested on: NCI-H2170
How it was run: as §1

NCI-H2228 = tested on: NCI-H2228
How it was run: as §1

NCI-H2405 = tested on: NCI-H2405
How it was run: as §1

NCI-H3122 = tested on: NCI-H3122
How it was run: as §1

NCI-H460 = tested on: NCI-H460
How it was run: as §1

PC-3 [JPC-3] = tested on: PC-3 [JPC-3]
How it was run: as §1

RERF-LC-KJ = tested on: RERF-LC-KJ
How it was run: as §1

UMC-11 = tested on: UMC-11
How it was run: as §1

Clc1ccc(Nc2nnc(Cc3ccncc3)c3ccccc23)cc1 [Vatalanib] + C[C@@H](Oc1cc(-c2cnn(C3CCNCC3)c2)cnc1N)c1c(Cl)ccc(F)c1Cl [Crizotinib] (partner 1 µM)
relative viability (ABC-1; first compound 0.04 µM): 1.01 | relative viability (ABC-1; first compound 0.1265 µM): 1 | relative viability (ABC-1; first compound 0.4 µM): 1.37 | relative viability (ABC-1; first compound 1.265 µM): 0.89 | relative viability (ABC-1; first compound 4 µM): 1.13 | relative viability (CAL-12T; first compound 0.04 µM): 0.651 | relative viability (CAL-12T; first compound 0.1265 µM): 0.523 | relative viability (CAL-12T; first compound 0.4 µM): 0.686 | relative viability (CAL-12T; first compound 1.265 µM): 0.446 | relative viability (CAL-12T; first compound 4 µM): 0.746 | relative viability (ChaGo-K-1; first compound 0.04 µM): 1.18 | relative viability (ChaGo-K-1; first compound 0.1265 µM): 1.14 | relative viability (ChaGo-K-1; first compound 1.265 µM): 1.1 | relative viability (ChaGo-K-1; first compound 4 µM): 1.09 | relative viability (EPLC-272H; first compound 0.04 µM): 0.836 | relative viability (EPLC-272H; first compound 0.1265 µM): 0.779 | relative viability (EPLC-272H; first compound 0.4 µM): 0.965 | relative viability (EPLC-272H; first compound 1.265 µM): 0.919 | relative viability (EPLC-272H; first compound 4 µM): 0.955 | relative viability (HCC-366; first compound 0.04 µM): 0.545 | relative viability (HCC-366; first compound 0.1265 µM): 0.383 | relative viability (HCC-366; first compound 0.4 µM): 0.592 | relative viability (HCC-366; first compound 1.265 µM): 0.487 | relative viability (HCC-366; first compound 4 µM): 0.35 | relative viability (HCC-78; first compound 0.04 µM): 0.318 | relative viability (HCC-78; first compound 0.1265 µM): 0.324 | relative viability (HCC-78; first compound 0.4 µM): 0.35 | relative viability (HCC-78; first compound 4 µM): 0.306 | relative viability (LC-2-ad; first compound 0.04 µM): 0.515 | relative viability (LC-2-ad; first compound 0.1265 µM): 0.436 | relative viability (LC-2-ad; first compound 1.265 µM): 0.456 | relative viability (LC-2-ad; first compound 4 µM): 0.458 | relative viability (LOU-NH91; first compound 0.04 µM): 0.728 | relative viability (LOU-NH91; first compound 0.1265 µM): 0.708 | relative viability (LOU-NH91; first compound 0.4 µM): 0.674 | relative viability (LOU-NH91; first compound 1.265 µM): 0.718 | relative viability (LOU-NH91; first compound 4 µM): 0.726 | relative viability (LU99A; first compound 0.04 µM): 0.597 | relative viability (LU99A; first compound 0.1265 µM): 0.524 | relative viability (LU99A; first compound 0.4 µM): 0.63 | relative viability (LU99A; first compound 1.265 µM): 0.528 | relative viability (LU99A; first compound 4 µM): 0.513 | relative viability (NCI-H1651; first compound 0.04 µM): 0.865 | relative viability (NCI-H1651; first compound 0.1265 µM): 0.839 | relative viability (NCI-H1651; first compound 0.4 µM): 0.858 | relative viability (NCI-H1651; first compound 1.265 µM): 0.86 | relative viability (NCI-H1651; first compound 4 µM): 0.925 | relative viability (NCI-H1734; first compound 0.04 µM): 0.714 | relative viability (NCI-H1734; first compound 0.1265 µM): 0.645 | relative viability (NCI-H1734; first compound 0.4 µM): 0.796 | relative viability (NCI-H1734; first compound 1.265 µM): 0.694 | relative viability (NCI-H1734; first compound 4 µM): 0.57 | relative viability (NCI-H1755; first compound 0.04 µM): 0.886 | relative viability (NCI-H1755; first compound 0.1265 µM): 0.821 | relative viability (NCI-H1755; first compound 0.4 µM): 0.942 | relative viability (NCI-H1755; first compound 1.265 µM): 0.802 | relative viability (NCI-H1755; first compound 4 µM): 0.773 | relative viability (NCI-H1944; first compound 0.04 µM): 1.13 | relative viability (NCI-H1944; first compound 0.1265 µM): 0.986 | relative viability (NCI-H1944; first compound 0.4 µM): 1.23 | relative viability (NCI-H1944; first compound 1.265 µM): 1.1 | relative viability (NCI-H1944; first compound 4 µM): 1.05 | relative viability (NCI-H2087; first compound 0.04 µM): 0.89 | relative viability (NCI-H2087; first compound 0.1265 µM): 1.07 | relative viability (NCI-H2087; first compound 0.4 µM): 0.828 | relative viability (NCI-H2087; first compound 1.265 µM): 0.826 | relative viability (NCI-H2087; first compound 4 µM): 0.89 | relative viability (NCI-H2170; first compound 0.04 µM): 1.22 | relative viability (NCI-H2170; first compound 0.1265 µM): 1.21 | relative viability (NCI-H2170; first compound 0.4 µM): 1.18 | relative viability (NCI-H2170; first compound 1.265 µM): 1.06 | relative viability (NCI-H2170; first compound 4 µM): 1.04 | relative viability (NCI-H2228; first compound 0.04 µM): 0.332 | relative viability (NCI-H2228; first compound 0.1265 µM): 0.496 | relative viability (NCI-H2228; first compound 0.4 µM): 0.499 | relative viability (NCI-H2228; first compound 1.265 µM): 0.432 | relative viability (NCI-H2228; first compound 4 µM): 0.496 | relative viability (NCI-H2405; first compound 0.04 µM): 0.896 | relative viability (NCI-H2405; first compound 0.1265 µM): 0.79 | relative viability (NCI-H2405; first compound 0.4 µM): 0.932 | relative viability (NCI-H2405; first compound 1.265 µM): 0.816 | relative viability (NCI-H2405; first compound 4 µM): 0.82 | relative viability (NCI-H3122; first compound 0.04 µM): 0.25 | relative viability (NCI-H3122; first compound 0.1265 µM): 0.274 | relative viability (NCI-H3122; first compound 0.4 µM): 0.269 | relative viability (NCI-H3122; first compound 1.265 µM): 0.249 | relative viability (NCI-H3122; first compound 4 µM): 0.288 | relative viability (NCI-H460; first compound 0.04 µM): 0.878 | relative viability (NCI-H460; first compound 0.1265 µM): 0.827 | relative viability (NCI-H460; first compound 0.4 µM): 1.21 | relative viability (NCI-H460; first compound 1.265 µM): 0.748 | relative viability (NCI-H460; first compound 4 µM): 0.856 | relative viability (PC-3 [JPC-3]; first compound 0.04 µM): 0.978 | relative viability (PC-3 [JPC-3]; first compound 0.1265 µM): 0.872 | relative viability (PC-3 [JPC-3]; first compound 0.4 µM): 0.967 | relative viability (PC-3 [JPC-3]; first compound 1.265 µM): 0.937 | relative viability (PC-3 [JPC-3]; first compound 4 µM): 0.949 | relative viability (RERF-LC-KJ; first compound 0.04 µM): 0.881 | relative viability (RERF-LC-KJ; first compound 0.1265 µM): 0.766 | relative viability (RERF-LC-KJ; first compound 0.4 µM): 0.88 | relative viability (RERF-LC-KJ; first compound 1.265 µM): 0.792 | relative viability (RERF-LC-KJ; first compound 4 µM): 0.799 | relative viability (UMC-11; first compound 0.04 µM): 0.616 | relative viability (UMC-11; first compound 0.1265 µM): 0.585 | relative viability (UMC-11; first compound 0.4 µM): 0.719 | relative viability (UMC-11; first compound 1.265 µM): 0.586 | relative viability (UMC-11; first compound 4 µM): 0.629
